Assay type in all cases: cell-based
One test relates to Klebsiella 63. The experiment in a line: Minimum inhibitory concentration in vitro, Klebsiella 63. From the text:
(§1) As representative of the spectrum of antimicrobial activity for these compounds, the following representative minimum inhibitory concentrations shown on Tables A, B and C can be noted:
(§2) Minimum Inhibitory Concentrations In Vitro, in μg/ml of Medium

Another test has as its system Mycoplasma S6. The experiment in a line: Minimum inhibitory concentration, Mycoplasma S6.
In test [1] the test system is Pasteurella multocida ATCC. Briefly: Minimum inhibitory concentration, Pasteurella multocida ATCC.
The subject of the next test is Mycoplasma MS. Briefly: Minimum inhibitory concentration, Mycoplasma MS. From the text:
(§3) As representative of the spectrum of antimicrobial activity for these compounds, the following representative minimum inhibitory concentrations shown on Tables A, B and C can be noted: […]

Test [2] has as its system Alcaligenes faecalis ATCC. Briefly: Minimum inhibitory concentration, Alcaligenes faecalis ATCC.
In another test the test system is Mycoplasma gran. Briefly: Minimum inhibitory concentration, Mycoplasma gran.
Test [3] deals with Staphylococcus aureus 133. Briefly: Minimum inhibitory concentration in vitro, Staphylococcus aureus 133.
Text: as §1, §2

Another test has as its system Clostridium tetani. Briefly: microbe, parasite or virus in culture. Particulars: read-out: minimum inhibitory concentration.
Another test concerns Escherichia coli C 165. The experiment in a line: Minimum inhibitory concentration in vitro, Escherichia coli C 165. The conditions noted are these: C165.
Text: as §1, §2

For test [4], the system named is Bordetella bronchiseptica. The experiment in a line: Minimum inhibitory concentration, Bordetella bronchiseptica.
The subject of a further test is Mycobacterium species. Briefly: Minimum inhibitory concentration, Mycobacterium species.
Text: as §3

A further test deals with Aeromonas liquefaciens. The experiment in a line: Minimum inhibitory concentration, Aeromonas liquefaciens. Particulars: Aeromonas hydrophila.
The test system of another test is Streptococcus pyogenes. The experiment in a line: Minimum inhibitory concentration in vitro, Streptococcus pyogenes.
Text: as §1, §2

The test system of another test is Klebsiella 8085. Briefly: Minimum inhibitory concentration in vitro, Klebsiella 8085.
Text: as §1, §2

The subject of another test is Clostridium botulinum. The experiment in a line: microbe, parasite or virus in culture. Particulars: read-out: minimum inhibitory concentration.
A further test has as its system Proteus vulgaris. The experiment in a line: Minimum inhibitory concentration in vitro, Proteus vulgaris specieis.
Text: as §1, §2

For the next test, the system named is Escherichia coli A 261. Briefly: Minimum inhibitory concentration in vitro, Escherichia coli A 261. The conditions noted are these: A261.
Text: as §1, §2

Values after ≈ are worked out from the molar mass of the structure shown.

For `COC(=O)NN=Cc1c(C(=O)N2CCCC2)[n+]([O-])c2ccccc2[n+]1[O-]` [Example 12], the MIC in the test with Klebsiella 63 stood at 100 µg/mL (≈ 278 µM); with Mycoplasma S6, 10 µg/mL (≈ 27.8 µM); in test [1], 1 µg/mL (≈ 2.78 µM); against Mycoplasma MS, 100 µg/mL (≈ 278 µM); in [2], 100 µg/mL (≈ 278 µM); in the test with Mycoplasma gran, 10 µg/mL (≈ 27.8 µM). The MIC in test [3] worked out at 10 µg/mL (≈ 27.8 µM); with Clostridium tetani it was 10 µg/mL (≈ 27.8 µM); in the test with Escherichia coli C 165 it was 100 µg/mL (≈ 278 µM); in test [4], 100 µg/mL (≈ 278 µM); in the test with Mycobacterium species, 100 µg/mL (≈ 278 µM); with Aeromonas liquefaciens it was 100 µg/mL (≈ 278 µM). For the same molecule, the MIC with Streptococcus pyogenes stood at 100 µg/mL (≈ 278 µM); against Klebsiella 8085, 100 µg/mL (≈ 278 µM); in the test with Clostridium botulinum it was 10 µg/mL (≈ 27.8 µM).
`CNC(=O)c1c(C=NNC(=O)OC)[n+]([O-])c2ccccc2[n+]1[O-]` [Example 13]: the MIC (against Klebsiella 63; against Mycoplasma S6; in test [1]; in test [2]; in the test on Mycoplasma gran; in test [3]) was 100 µg/mL (≈ 313 µM) each time. Moreover, the MIC (in the test on Clostridium tetani; with Escherichia coli C 165; in [4]; against Mycobacterium species; in the test with Proteus vulgaris; in the test with Escherichia coli A 261) was 100 µg/mL (≈ 313 µM) in each case. In addition, the MIC against Aeromonas liquefaciens is 100 µg/mL (≈ 313 µM); against Streptococcus pyogenes it was 100 µg/mL (≈ 313 µM); against Klebsiella 8085, 10 µg/mL (≈ 31.3 µM); in the test with Clostridium botulinum, 100 µg/mL (≈ 313 µM).
For `CCCNC(=O)c1c(C=NNC(=O)OC)[n+]([O-])c2ccccc2[n+]1[O-]` [Example 15], the MIC (in the test on Klebsiella 63; in the test on Mycoplasma S6; in [1]; in test [2]; against Mycoplasma gran; in [3]) was 100 µg/mL (≈ 288 µM) in each case. Besides, the MIC (in the test on Clostridium tetani; against Escherichia coli C 165; in test [4]; against Mycobacterium species; against Escherichia coli A 261; in the test with Aeromonas liquefaciens) was 100 µg/mL (≈ 288 µM) each time. Moreover, the MIC against Streptococcus pyogenes was 10 µg/mL (≈ 28.8 µM); against Klebsiella 8085 it was 100 µg/mL (≈ 288 µM); in the test on Clostridium botulinum, 100 µg/mL (≈ 288 µM).
Take `COC(=O)NN=Cc1c(C(=O)NC(C)C)[n+]([O-])c2ccccc2[n+]1[O-]` [Example 17]: the MIC (against Klebsiella 63; in the test on Mycoplasma S6; in test [1]; in [2]; against Mycoplasma gran; in test [3]) was 100 µg/mL (≈ 288 µM) in each case. The MIC (in the test with Clostridium tetani; with Escherichia coli C 165; in test [4]; against Mycobacterium species; with Escherichia coli A 261; against Aeromonas liquefaciens) was 100 µg/mL (≈ 288 µM) each time. The MIC with Streptococcus pyogenes was found to be 100 µg/mL (≈ 288 µM); against Klebsiella 8085 it was 10 µg/mL (≈ 28.8 µM); in the test on Clostridium botulinum, 100 µg/mL (≈ 288 µM).
Take `CCNC(=O)c1c(C=NNC(=O)OC)[n+]([O-])c2ccccc2[n+]1[O-]` [Example 18]: the MIC (against Klebsiella 63; in the test on Mycoplasma S6; in test [1]; in test [2]; in the test on Mycoplasma gran; in test [3]) was 100 µg/mL (≈ 300 µM) in each case. Also, the MIC (in the test on Clostridium tetani; against Escherichia coli C 165; in test [4]; in the test with Mycobacterium species; against Proteus vulgaris; against Escherichia coli A 261) was 100 µg/mL (≈ 300 µM) each time. For the same molecule, the MIC in the test with Aeromonas liquefaciens came to 100 µg/mL (≈ 300 µM); in the test on Streptococcus pyogenes it was 100 µg/mL (≈ 300 µM); against Klebsiella 8085, 10 µg/mL (≈ 30 µM); in the test on Clostridium botulinum, 100 µg/mL (≈ 300 µM).
On to `CNC(=O)c1c(C=NO)[n+]([O-])c2ccccc2[n+]1[O-]` [Example 19], for which the MIC (against Klebsiella 63; in the test with Mycoplasma S6; in [1]; in test [2]; against Mycoplasma gran; in [3]) was 100 µg/mL (≈ 381 µM) in each case. Besides, the MIC in the test on Clostridium tetani is 100 µg/mL (≈ 381 µM); with Escherichia coli C 165, 100 µg/mL (≈ 381 µM); in test [4], 100 µg/mL (≈ 381 µM); in the test with Mycobacterium species it was 40 to 100 µg/mL (≈ 153 to 381 µM); in the test on Proteus vulgaris, 100 µg/mL (≈ 381 µM); with Escherichia coli A 261, 100 µg/mL (≈ 381 µM). Further, the MIC in the test with Aeromonas liquefaciens, in the test with Streptococcus pyogenes, against Klebsiella 8085 and with Clostridium botulinum was 100 µg/mL (≈ 381 µM) throughout.

The record behind these values is patent US3957987A, “Compositions containing a carbonamidoquinoxaline-di-N-oxide and method of using same” (Bayer Aktiengesellschaft, priority 1971, dated 1976).
